This note sets out measurements from PubChem BioAssay (NCI).

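48-hour exposure; five concentrations; linearly interpolated endpoints. GI50 is the concentration that inhibits growth by half. TGI is the concentration that stops growth completely.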

Test systems include NCI-H522 lung; SN12C renal; OVCAR-4 ovarian; CCRF-CEM leukemia; SK-OV-3 ovarian; CAKI-1 renal; MOLT-4 leukemia; SK-MEL-28 melanoma; U251 CNS; SK-MEL-5 melanoma; RPMI-8226 leukemia.
Assay in all cases: NCI tumour cell line growth inhibition, 48 h

`O=c1oc2ccccc2n1P(=O)(n1c(=O)oc2ccccc21)n1c(=O)oc2ccccc21`: the TGI in the assay on NCI-H522 lung, in the assay on SN12C renal, in the assay with OVCAR-4 ovarian, with CCRF-CEM leukemia, in the assay on SK-OV-3 ovarian and in the assay on CAKI-1 renal was above 100 µM throughout. Besides, the TGI in the assay with MOLT-4 leukemia, in the assay with SK-MEL-28 melanoma and in the assay on U251 CNS was above 100 µM in each case.

With `CS/C(C#N)=C(\C#N)SC`, the TGI is 3.75 µM in the assay on NCI-H522 lung; 34.4 µM in the assay with SN12C renal; 38.2 µM with OVCAR-4 ovarian; above 100 µM in the assay with CCRF-CEM leukemia; 22.3 µM in the assay on CAKI-1 renal; 4.77 µM in the assay on MOLT-4 leukemia. Besides, the TGI is 49.1 µM in the assay with SK-MEL-5 melanoma, 37.7 µM with SK-MEL-28 melanoma, above 100 µM with U251 CNS and above 100 µM with RPMI-8226 leukemia.

For the compound `CC(C)OC(=O)Nc1cccc(Cl)c1`, the TGI in the assay with SN12C renal, in the assay with OVCAR-4 ovarian, in the assay on CCRF-CEM leukemia, in the assay with SK-OV-3 ovarian, with CAKI-1 renal and in the assay on MOLT-4 leukemia was above 100 µM in each case. Further, the TGI with SK-MEL-5 melanoma, with SK-MEL-28 melanoma, in the assay on U251 CNS and with RPMI-8226 leukemia was above 100 µM throughout.

Turning to `CN(C)CC1CCCC(CN2CCCCC2)C1=O` (stereo not drawn), the TGI in the assay on NCI-H522 lung was 0.204 µM; with SN12C renal, 16.8 µM; in the assay with OVCAR-4 ovarian, 7.75 µM; in the assay with CCRF-CEM leukemia it was 5.48 µM; with SK-OV-3 ovarian it was above 100 µM; in the assay with CAKI-1 renal, 3.73 µM. Moreover, the TGI in the assay with MOLT-4 leukemia is 12.5 µM; in the assay with SK-MEL-5 melanoma it was 33.5 µM; with SK-MEL-28 melanoma, 27.6 µM; with U251 CNS, above 66.9 µM; in the assay on RPMI-8226 leukemia it was 1.29 µM.

As for `[O-]c1c[n+](CCCC[n+]2cc([O-])on2)no1`, the TGI with NCI-H522 lung, in the assay on SN12C renal, with OVCAR-4 ovarian, in the assay on CCRF-CEM leukemia, in the assay on SK-OV-3 ovarian and with CAKI-1 renal was above 100 µM in each case. In addition, the TGI in the assay on MOLT-4 leukemia, with SK-MEL-5 melanoma, with SK-MEL-28 melanoma, in the assay with U251 CNS and with RPMI-8226 leukemia was above 100 µM in each case.

As for `Cc1cccc(O)c1-c1nnc(CCCCCCCCc2nnc(-c3c(C)cccc3O)n2N)n1N`, the TGI in the assay with NCI-H522 lung was 97.2 µM; in the assay with SN12C renal it was above 100 µM; in the assay with OVCAR-4 ovarian, above 56.1 µM; with CCRF-CEM leukemia, 37.1 µM; in the assay on SK-OV-3 ovarian, above 100 µM; in the assay with CAKI-1 renal it was above 100 µM. Further, the TGI in the assay on MOLT-4 leukemia was above 42.1 µM; with SK-MEL-5 melanoma it was above 100 µM; with SK-MEL-28 melanoma it was above 100 µM; in the assay on U251 CNS, 67.5 µM; in the assay on RPMI-8226 leukemia, above 100 µM.

With `Cc1ccc(S(=O)(=O)N2c3ccccc3[C@H]3CCc4c([nH]c5ccccc45)[C@H]32)cc1`, the TGI in the assay on SN12C renal, with OVCAR-4 ovarian, in the assay with CCRF-CEM leukemia, in the assay on SK-OV-3 ovarian, in the assay with CAKI-1 renal and in the assay with MOLT-4 leukemia was above 100 µM in each case. The TGI in the assay with SK-MEL-5 melanoma, in the assay on SK-MEL-28 melanoma, in the assay on U251 CNS and with RPMI-8226 leukemia was above 100 µM in each case.

For the compound `C[C@H]1C(=O)O[C@@H]1[C@H]1COC(C)(C)O1`, the TGI with SN12C renal, in the assay on OVCAR-4 ovarian, in the assay on CCRF-CEM leukemia, in the assay with SK-OV-3 ovarian, with CAKI-1 renal and in the assay on MOLT-4 leukemia was above 100 µM throughout. In addition, the TGI in the assay with SK-MEL-28 melanoma, with U251 CNS and with RPMI-8226 leukemia was above 100 µM throughout.

Take `CC(N)C(=O)OCN1C(=O)C2C3C=CC(C2C1=O)C1C2C(=O)N(COC(=O)C(C)N)C(=O)C2C31` (stereo not drawn): the TGI is 55.8 µM in the assay on SN12C renal; 40.9 µM with OVCAR-4 ovarian; 67.2 µM in the assay on CCRF-CEM leukemia; above 100 µM in the assay with SK-OV-3 ovarian; above 100 µM in the assay on CAKI-1 renal; 51.8 µM with MOLT-4 leukemia. In addition, the TGI in the assay with SK-MEL-5 melanoma is 34.1 µM; with SK-MEL-28 melanoma it was 41.4 µM; in the assay on U251 CNS it was 50.3 µM; in the assay on RPMI-8226 leukemia, 54.9 µM.

As for `CO[C@H]1ON=C(c2c(C)cc(C)cc2C)[C@@H]1C1(c2ccccc2)ON=C(c2c(C)cc(C)cc2C)O1` (stereo partly drawn), the TGI with NCI-H522 lung, with SN12C renal, with CCRF-CEM leukemia, with SK-OV-3 ovarian, in the assay on MOLT-4 leukemia and in the assay on SK-MEL-28 melanoma was above 100 µM each time. For the same compound, the TGI with U251 CNS and in the assay with RPMI-8226 leukemia was above 100 µM throughout.

In the case of `Cc1ccccc1[P+](C)(c1ccccc1C)c1ccccc1C`, the TGI with NCI-H522 lung was 21.6 µM; in the assay on SN12C renal it was 43.9 µM; with OVCAR-4 ovarian, 18.1 µM; in the assay on CCRF-CEM leukemia, 0.0867 µM; in the assay on SK-OV-3 ovarian it was above 100 µM; with SK-MEL-5 melanoma, 16.8 µM. Besides, the results for the TGI in the assay with SK-MEL-28 melanoma, with U251 CNS and in the assay with RPMI-8226 leukemia were 35.8 µM, 28.4 µM and 3.96 µM, respectively.

`Nc1nc(Cl)cc(NCCCNc2cc(Cl)nc(N)n2)n1`: the TGI in the assay with SN12C renal, in the assay with OVCAR-4 ovarian, in the assay with CCRF-CEM leukemia, in the assay on SK-OV-3 ovarian, with MOLT-4 leukemia and with SK-MEL-5 melanoma was above 100 µM each time. The TGI in the assay on SK-MEL-28 melanoma, in the assay with U251 CNS and in the assay on RPMI-8226 leukemia was above 100 µM in each case.

`COC(=O)C(=O)C(C(=O)C1=NS(=O)(=O)c2cc(S(N)(=O)=O)c(Cl)cc2N1)c1nc2ccc(C(=O)c3ccccc3)cc2[nH]c1=O` (stereo not drawn): the TGI with NCI-H522 lung, with SN12C renal, in the assay on OVCAR-4 ovarian, with CCRF-CEM leukemia, in the assay with CAKI-1 renal and in the assay with MOLT-4 leukemia was above 100 µM in each case. For the same compound, the TGI with SK-MEL-5 melanoma, with SK-MEL-28 melanoma, in the assay with U251 CNS and in the assay on RPMI-8226 leukemia was above 100 µM throughout.

As to `Cn1cc(-c2csc(-c3cn(C)c4ccc(Br)cc34)n2)c2cnccc21`, the GI50 with NCI-H522 lung was 1.76 µM; with SN12C renal it was 1.53 µM; with OVCAR-4 ovarian it was 1.68 µM; in the assay with SK-OV-3 ovarian it was 1.99 µM; with CAKI-1 renal, 1.77 µM; in the assay on SK-MEL-5 melanoma it was 1.7 µM. In addition, the GI50 in the assay on SK-MEL-28 melanoma was 1.85 µM; with U251 CNS, 1.78 µM. In addition, the TGI in the assay on NCI-H522 lung was 3.44 µM; in the assay with SN12C renal it was 2.92 µM; with OVCAR-4 ovarian, 3.15 µM; with SK-OV-3 ovarian it was 3.6 µM; with CAKI-1 renal it was 3.22 µM; in the assay on SK-MEL-5 melanoma, 3.09 µM. The TGI was found to be 3.3 µM in the assay with SK-MEL-28 melanoma and 3.27 µM in the assay with U251 CNS.

Turning to `NC(=O)c1ccc(NS(=O)(=O)c2ccc(N)cc2)nc1`, the TGI with SN12C renal, in the assay on OVCAR-4 ovarian, in the assay on CCRF-CEM leukemia, in the assay with SK-OV-3 ovarian, in the assay on CAKI-1 renal and in the assay with MOLT-4 leukemia was above 100 µM in each case. The TGI with SK-MEL-5 melanoma, with SK-MEL-28 melanoma, in the assay with U251 CNS and in the assay with RPMI-8226 leukemia was above 100 µM in each case.

In the case of `CN1C(=O)CN2C(Cl)(Cl)C2(c2ccccc2F)c2cc([N+](=O)[O-])ccc21` (stereo not drawn), the TGI is above 100 µM in the assay with NCI-H522 lung; 80.7 µM in the assay with SN12C renal; above 100 µM with OVCAR-4 ovarian; above 100 µM in the assay with CCRF-CEM leukemia; above 100 µM with CAKI-1 renal; 57.2 µM with MOLT-4 leukemia. Besides, the TGI in the assay on SK-MEL-5 melanoma, in the assay on SK-MEL-28 melanoma, with U251 CNS and in the assay on RPMI-8226 leukemia was above 100 µM throughout.

Consider `C1CCC(OCc2nnn3c2CCC3)OC1` (stereo not drawn), for which the TGI in the assay on NCI-H522 lung, in the assay with SN12C renal, in the assay with OVCAR-4 ovarian, in the assay with CCRF-CEM leukemia, in the assay with SK-OV-3 ovarian and in the assay with MOLT-4 leukemia was above 100 µM throughout. Moreover, the TGI in the assay with SK-MEL-5 melanoma, in the assay with SK-MEL-28 melanoma and with U251 CNS was above 100 µM throughout.

Turning to `c1ccc(CSC2(SCc3ccccc3)CCCC2)cc1`, the TGI with NCI-H522 lung, in the assay with SN12C renal, in the assay with OVCAR-4 ovarian, in the assay with CCRF-CEM leukemia, in the assay with SK-OV-3 ovarian and in the assay with CAKI-1 renal was above 10 µM in each case. Besides, the TGI with MOLT-4 leukemia, in the assay on SK-MEL-5 melanoma, in the assay with SK-MEL-28 melanoma, in the assay on U251 CNS and in the assay on RPMI-8226 leukemia was above 10 µM each time.
